Experimental data taken from patent US20210221848A1, “POLYMYXIN DERIVATIVES AND THEIR USE IN COMBINATION THERAPY TOGETHER WITH DIFFERENT ANTIBIOTICS” (priority 2014, published 2021).
Where two headings read alike, the source gives them in different places.

Experiments:
[1] = test system: E. coli strains with elevated MICs to Polymyxin B; assay: MIC against strains with elevated MICs to Polymyxin B; assay type: cell-based, Escherichia coli; settings: Table 6D; for MIC E. coli 058: strain 058, elevated MIC to Polymyxin B; for MIC E. coli 059: strain 059, elevated MIC to Polymyxin B; for MIC E. coli 060: strain 060, elevated MIC to Polymyxin B; for MIC E. coli 061: strain 061, elevated MIC to Polymyxin B
Outline: (§1)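 Reported MIC is the lower of duplicates agreeing within 2-fold, or the mode where compounds were tested repeatedly. Assays with greater than 2-fold duplicate variation were rejected. Colonies grown 18-24 hours on Mueller-Hinton agar were suspended to 0.5 McFarland as inoculum.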

[2] = test system: K. pneumoniae strains with elevated MICs to Polymyxin B; assay: as above; assay type: cell-based, Klebsiella pneumoniae; settings: Table 6D; for MIC K. pneumoniae 062: strain 062, elevated MIC to Polymyxin B; for MIC K. pneumoniae 063: strain 063, elevated MIC to Polymyxin B; for MIC K. pneumoniae 064: strain 064, elevated MIC to Polymyxin B; for MIC K. pneumoniae 655: strain 655, elevated MIC to Polymyxin B
Outline: as §1

[3] = test system: P. aeruginosa strains with elevated MICs to Polymyxin B; assay: as above; assay type: cell-based, Pseudomonas aeruginosa; settings: Table 6D; for MIC P. aeruginosa 065: strain 065, elevated MIC to Polymyxin B; for MIC P. aeruginosa 066: strain 066, elevated MIC to Polymyxin B; for MIC P. aeruginosa 067: strain 067, elevated MIC to Polymyxin B
Outline: as §1

[4] = test system: A. baumanii strains with elevated MICs to Polymyxin B; assay: as above; assay type: cell-based, Acinetobacter baumannii; settings: Table 6D; for MIC A. baumannii 053: strain 053, elevated MIC to Polymyxin B; for MIC A. baumannii 056: strain 056, elevated MIC to Polymyxin B; for MIC A. baumannii 068: strain 068, elevated MIC to Polymyxin B; for MIC A. baumannii 070: strain 070, elevated MIC to Polymyxin B
Outline: as §1

[5] = absence of a second agent, Table 6B

Row | Substance | MIC E. coli 058 [1] | MIC E. coli 059 [1] | MIC E. coli 060 [1] | MIC E. coli 061 [1] | MIC K. pneumoniae 062 [2] | MIC K. pneumoniae 063 [2] | MIC K. pneumoniae 064 [2] | MIC K. pneumoniae 655 [2] | MIC P. aeruginosa 066 [3] | MIC P. aeruginosa 067 [3] | MIC A. baumannii 053 [4] | MIC A. baumannii 056 [4] | MIC A. baumannii 068 [4] | MIC A. baumannii 070 [4] | MIC, E. coli ATCC 25922 (E. coli; sole activity, Table 6C) | MIC, K. pneumoniae ATCC 4352 (K. pneumoniae; sole activity, Table 6C) | MIC, P. aeruginosa ATCC 27853 (P. aeruginosa; sole activity, Table 6C) | MIC, P. aeruginosa CCUG 59347 (P. aeruginosa; sole activity, Table 6C) | MIC, A. baumannii ATCC BAA-747 (A. baumannii; sole activity, Table 6C) | MIC, A. baumannii NCTC 13424 (A. baumannii; sole activity, Table 6C) | also measured
1 | 4-(isobutyl- piperidine)-3- carbonyl L-Thr-L- Dap-polymyxin B heptapeptide [Example D83] | 4 micrograms/mL | 8 micrograms/mL | 2 micrograms/mL | 8 micrograms/mL | 32 micrograms/mL | 16 micrograms/mL | 2 micrograms/mL | 16 micrograms/mL | 2 micrograms/mL | 32 micrograms/mL | >64 micrograms/mL | 32 micrograms/mL | 8 micrograms/mL | 16 micrograms/mL | 0.125 micrograms/mL | 0.06 micrograms/mL | 0.25 micrograms/mL | 0.5 micrograms/mL | 0.06 micrograms/mL | 0.125 micrograms/mL | MIC P. aeruginosa 065 [3]: 2 micrograms/mL; MIC, E. coli NCTC 13441 (E. coli; sole activity, Table 6C): 0.06 micrograms/mL
2 | 3-aminomethyl- undecanoyl L- Thr-L-Dap- polymyxin B heptapeptide [Example D91] | 1 micrograms/mL | 0.5 micrograms/mL | 2 micrograms/mL | 4 micrograms/mL | 8 micrograms/mL | 16 micrograms/mL | 4 micrograms/mL | 8 micrograms/mL | 2 micrograms/mL | 16 micrograms/mL | 8 micrograms/mL | 2 micrograms/mL | 2 micrograms/mL | 1 micrograms/mL | 0.5 micrograms/mL | 0.25 micrograms/mL | 0.5 micrograms/mL | 0.5 micrograms/mL | 0.25 micrograms/mL | 0.5 micrograms/mL | –
3 | trans-5-phenyl- piperidine-3- carbonyl L-Thr-L- Dap-polymyxin B heptapeptide [Example D84] | 4 micrograms/mL | 8 micrograms/mL | 4 micrograms/mL | 8 micrograms/mL | >64 micrograms/mL | 32 micrograms/mL | 8 micrograms/mL | 16 micrograms/mL | 2 micrograms/mL | >64 micrograms/mL | >64 micrograms/mL | 32 micrograms/mL | 8 micrograms/mL | 16 micrograms/mL | 0.25 micrograms/mL | 0.125 micrograms/mL | 0.5 micrograms/mL | 0.5 micrograms/mL | 0.06 micrograms/mL | 0.25 micrograms/mL | MIC P. aeruginosa 065 [3]: 8 micrograms/mL; MIC, E. coli NCTC 13441 (E. coli; sole activity, Table 6C): 0.06 micrograms/mL
4 | (cis-5-octylpiperidine)- 3-carbonyl polymyxin B nonapeptide [Example D20] | – | 4 micrograms/mL | 16 micrograms/mL | 32 micrograms/mL | >64 micrograms/mL | >64 micrograms/mL | >64 micrograms/mL | >64 micrograms/mL | 64 micrograms/mL | >64 micrograms/mL | >64 micrograms/mL | >64 micrograms/mL | 32 micrograms/mL | 64 micrograms/mL | – | – | – | – | – | – | MIC, E. coli ATCC 25922 (E. coli; [5]): 4 micrograms/mL; MIC, E. coli NCTC 13441 (E. coli; [5]): 4 micrograms/mL; MIC, K. pneumoniae ATCC 4352 (K. pneumoniae; [5]): 8 micrograms/mL; MIC, K. pneumoniae ATCC BAA-2146 (K. pneumoniae; K. pneumoniae ATCC BAA-2146, absence of a second agent, Table 6B): >8 micrograms/mL; MIC, P. aeruginosa ATCC 27853 (P. aeruginosa; [5]): 0.5 micrograms/mL; MIC, P. aeruginosa CCUG 59347 (P. aeruginosa; [5]): 1 micrograms/mL; MIC, A. baumannii ATCC BAA-747 (A. baumannii; [5]): >8 micrograms/mL; MIC, A. baumannii NCTC 13424 (A. baumannii; [5]): >8 micrograms/mL
